The data set in a line: Entrapment efficiency by absorbance. It counts as physicochemical. The following applies: sensitizer and emitter loading in TTA-MSNs. How it is done:
Next, TTA-MSNs were prepared dependence on the following steps. MSNs (50.0 mg) were dispersed 25 mL round flask in of BDP-F (2 mg), PEA (3 mg) and methyl oleate (150 mg) in THF (10 mL). The mixture solution was stirred until organic solvent evaporation (about 12 h) at room temperature in the dark condition. And then 10 mL PBS buffer was added. The mixture was ultrasonic shocked for 20 min. to make the nanoparticles dispersed in the PBS buffer. Then the BDP-F (sensitizer) and PEA (emitter)-loaded silica nanoparticles were low speed centrifuged (1000 rpm/min) for 5 min. The supernatant was collected and then extracted using dichloromethane (DCM). The DCM solvent containing BDP-F and PEA was used to measure sensitizer and emitter loading by collecting UV-vis absorption spectra using a molar absorption coefficient of 177500 M^−1 cm^−1 with)max=615 nm for BDP-F, 18000 M^−1cm^−1 with λmax=420 nm for PEA. Sensitizer and emitter loading were calculated using the following equation: Entrapment efficiency(%)=absorption of the loaded dye/absorption initial mass of the dye×100%.
The precipitate sample was extracted with 10 mL DCM. And then absorbance of Cou-C was measured to calculate the entrapment efficiency. Entrapment efficiency(%)=1−absorption of the unloaded prodrug/initial mass of the prodrug×100%.

Regarding `C(#Cc1c2ccccc2cc2ccccc12)c1ccccc1` [PEA, 9-phenylacetylene anthracene], the entrapment efficiency came out at 72%.

The record behind these values is patent US11827655B2, “Triplet-triplet annihilation upconversion system, and compositions and methods thereof for drug delivery” (University of Massachusetts, priority 2017, dated 2023).
